Data taken from patent US6239125A, “Azetidinone derivatives for the treatment of HCMV infections” (Boehringer Ingelheim (Canada) Ltd., priority 1998, dated 2001).
Structures can show the parent of a compound that is named as a salt. Where two headings read alike, the source gives them in different places. Non-standard residues stand in square brackets, D forms with d. Residues, ends and D or L forms follow the SMILES beside them. Tyr(3-NO2) = N[C@@H](Cc1ccc(O)c([N+](=O)[O-])c1)C(=O)O; 2Abz = Nc1ccccc1C(=O)O

What was measured:
[1] = system: HCMV (strain AD169, ATCC VR-538); test: Plaque Reduction Assay (PRA), HCMV-infected Hs-68 cells; format: cell-based, human cytomegalovirus (HCMV)
Procedure: B. Plaque Reduction Assay (PRA): Hs-68 cells (ATCC # CRL 1635) were seeded in 12-well plates at 83,000 cells/well in 1 mL of DMEM medium (Gibco Canada Inc.) supplemented with 10% fetal bovine serum (FBS, Gibco Canada Inc.). The plates were incubated for 3 days at 37° to allow the cells to reach 80-90% confluency prior to the assay.
The medium was removed from the cells by aspiration. The cells were then infected with approximately 50 PFU of HCMV (strain AD169, ATCC VR-538) in DMEM medium supplemented with 5% inactivated FBS (assay medium). (DMEM medium is commercially available and has been described by R. Dulbecco et al., Virology 1959, 8, 396.) The virus was allowed to adsorb to cells for 2 h at 37°. Following viral adsorption, the medium was removed from the wells by aspiration. The cells were then incubated with or without 1 mL of appropriate concentrations of test reagent in assay medium. Occasionally, test compounds were added 24 h post-infection. After 4 days of incubation at 37°, the medium was exchanged with fresh medium containing test compound and 4 days later the cells were fixed with 1% aqueous formaldehyde and stained with a 2% violet solution in 20% ethanol in water. Microscopic plaques were counted using a stereomicroscope. Drug effects were calculated as a percent reduction in the number of plaques in the presence of each drug concentration compared to the number observed in the absence of drug. Ganciclovir was used as a positive control in all experiments.

HCMV No protease [2] = target: T1, HCMV No protease (Human cytomegalovirus, UniProt P16753); test: HCMV No Protease Assay (fluorogenic substrate, IC50); format: biochemical; settings: HCMV No protease 100 nM, substrate 5 μM, 2.5 h at 30°, pH 8; Table 1 and Table 2
Procedure: This particular assay determines the ability of a test compound to inhibit the activity (IC50) of HCMV protease. More specifically, in the assay described herein, the inhibitory activity of the test compound is evaluated on the basis of its ability to interfere with the HCMV No protease cleavage of a fluorogenic peptide substrate which in turn is based on the maturation cleavage site of the enzyme.
1. HCMV No Protease Assay
Material & Methods: Fluorescence measurements were recorded on a Perkin-Elmer LS-50B spectrofluorimeter equipped with a plate reader accessory. UV measurements were recorded on a Thermomax® microplate reader from Molecular Devices Corporation, Menlo Park, Calif., USA.
The fluorescence increase upon cleavage of the Ala-Ser amide bond was monitored using excitation λ=312 nm (slit 2.5 nm) and emission λ=415 nm ([…]). A protocol adaptable to a 96-well plate format was designed for the determination of IC50 values of inhibitors.
No quenching was required before fluorescence measurement since the total scanning time by the plate reader accessory was brief relative to the duration of the reaction. The aqueous incubation buffer contained 50 mM tris(hydroxymethyl)aminomethane-HCl pH 8, 0.5M Na2 SO4, 50 mM NaCl, 0.1 mM EDTA, 1 mM tris(2-carboxyethyl)phosphine.HCl, 3% v/v DMSO and 0.05% w/v casein. The final concentrations of HCMV No protease (expressed in terms of total monomer concentration) and substrate were 100 nM and 5 μM respectively. IC50 values were obtained through fitting of the inhibition curve to a competitive inhibition model using SAS NLIN procedure. The mode of inhibition was determined by measurements of the initial rates (in cuvettes) at various substrate concentrations in the buffer as described above.

[3] = Cytotoxic effects, tetrazolium salt (MTT) metabolic assay; format: cell-based; settings: cytotoxicity, Table 1 and Table 2, read-out: TC50 (the source's name)
Procedure: Cytotoxic effects noted as TC50 in the following tables were determined according to the tetrazolium salt (MTT) metabolic assay, F. Denizot and F. Lang, J. Immun. Meth., 1986, 89, 271.

HCMV No protease [4] = target: T1, HCMV No protease; test: HCMV No Protease Assay (fluorogenic substrate, IC50); format: biochemical; settings: fluorogenic substrate cleaved by HCMV No protease
[5] = Human betaherpesvirus 5, Hs68, plaque reduction, Hs-68 cells, HCMV strain AD169, Table 1 and Table 2, read-out: EC50

T1 sequence (P16753 1-256): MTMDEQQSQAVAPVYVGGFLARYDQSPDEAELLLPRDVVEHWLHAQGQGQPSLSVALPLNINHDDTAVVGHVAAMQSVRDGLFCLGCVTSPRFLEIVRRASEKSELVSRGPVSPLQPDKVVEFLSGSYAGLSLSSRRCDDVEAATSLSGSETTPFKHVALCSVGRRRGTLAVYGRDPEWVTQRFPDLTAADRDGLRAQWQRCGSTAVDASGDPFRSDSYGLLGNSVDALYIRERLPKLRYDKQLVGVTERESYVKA

Structure (SMILES)	EC50 [1, 5] [µM]	IC50 (HCMV No protease [2]) [µM]	CC50 [3] [µM]	Kcat /KM (HCMV No protease [4]) [M⁻¹ s⁻¹]	EC50 ([1]; Human betaherpesvirus 5, AD169, Hs68) [µM]
CC[C@@H](NC(=O)N1C(=O)C[C@@H]1SCc1ccccn1)c1ccccc1 [Entry 114, 4(S)-{(2-pyridinylmethyl)thio}azetidin-2-one-1-carboxylic acid (1(R)-phenylpropyl)amide hydrochloride]	80	1.2	> 200		
CC(C)C[C@H](NC(=O)[C@H](CCCNC(=N)N)NC(=O)[C@H](CO)NC(=O)[C@H](CO)NC(=O)[C@H](C)NC(=O)[C@H](CC(N)=O)NC(=O)[C@@H](NC(=O)[C@@H](NC(=O)c1ccccc1N)C(C)C)C(C)C)C(=O)N[C@@H](Cc1ccc(O)c([N+](=O)[O-])c1)C(=O)N[C@@H](CCCNC(=N)N)C(=O)O (H-[2Abz]VVNASSRL[Tyr(3-NO2)]R-OH)				260	
CC(C)C[C@@H](CO[C@@H]1CC(=O)N1C(=O)NCc1ccccc1)NC(=O)OC(C)(C)C [Entry 201]		44			
C[C@@H](NC(=O)N1C(=O)C[C@@H]1[S+]([O-])c1ccccc1)c1ccccc1 (stereo partly drawn) [Entry 108]		4			
CN(C(=O)CC(CO[C@@H]1CC(=O)N1C(=O)NCc1ccccc1)NC(=O)CC(C)(C)C)C(C)(C)C (stereo partly drawn) [Entry 205]	> 250	5	> 250		
CC(C)C[C@@H](CO[C@@H]1CC(=O)N1C(=O)NCc1ccccc1)NC(=O)[C@@H](NC(=O)CC(C)(C)C)C(C)(C)C [Entry 204]		0.16			
CC(C)C[C@@H](CO[C@@H]1CC(=O)N1C(=O)NCc1ccccc1)NC(=O)[C@@H](NC(=O)OC(C)(C)C)C(C)(C)C [Entry 202]		1.3	> 52		64
C[C@@H](NC(=O)N1C(=O)C[C@@H]1SCc1ccccn1)c1ccccc1 [Entry 111]	60	2.5	180		
C[C@@H](NC(=O)N1C(=O)C[C@@H]1SC[C@H](CCS(C)(=O)=O)NC(=O)[C@@H](NC(=O)OC(C)(C)C)C(C)(C)C)c1ccccc1 [Entry 105]	110	0.2	> 250		
C[C@@H](NC(=O)N1C(=O)C[C@@H]1SCc1ccncc1)c1ccccc1 [Entry 109]	65	2.1	> 250		
C[C@@H](NC(=O)N1C(=O)C[C@H]1Oc1ccc(Cl)cc1)c1ccccc1 [Entry 206]		1.6			
CC(C)C[C@@H](CO[C@H]1CC(=O)N1C(=O)N[C@H](C)c1ccccc1)NC(=O)[C@@H](NC(=O)OC(C)(C)C)C(C)(C)C [Entry 203]	> 49	0.32	> 49		
C[C@@H](NC(=O)N1C(=O)C[C@@H]1SCc1ccccc1)c1ccccc1 [Entry 103]	> 5	12.4	> 5		
C[C@@H](NC(=O)N1C(=O)C[C@@H]1SCc1cccnc1)c1ccccc1 [Entry 110]	96	2	> 200		
C[C@@H](NC(=O)N1C(=O)C[C@H]1SC[C@H](CCS(C)(=O)=O)NC(=O)[C@@H](NC(=O)OC(C)(C)C)C(C)(C)C)c1ccccc1 [Entry 106]	230	0.62	> 250		
COC(=O)[C@@H](C)O[C@@H]1CC(=O)N1C(=O)N[C@H](C)c1ccccc1 [Entry 209]		21.5			
CC(C)C[C@@H](CS[C@H]1CC(=O)N1C(=O)NCc1ccccc1)NC(=O)[C@@H](NC(=O)OC(C)(C)C)C(C)(C)C [Entry 101]	> 11	0.4	> 11		
C[C@@H](NC(=O)N1C(=O)C[C@@H]1OCCNC(=O)c1ccc(NC(=O)CC(C)(C)C)cc1)c1ccccc1 [Entry 208]		21			
C[C@@H](NC(=O)N1C(=O)C[C@@H]1SCCc1ccccc1)c1ccccc1 [Entry 104]	> 4	6.5	> 4		
CC[C@@H](NC(=O)N1C(=O)C[C@@H]1SC[C@H](CC(C)C)NC(=O)[C@@H](NC(=O)CC(C)(C)C)C(C)(C)C)c1ccccc1 [Entry 115]	> 250	< 0.06	> 250		
O=C1C[C@H](SCc2ccccn2)N1C(=O)N[C@H](CO)c1ccccc1 [Entry 116]		3.6			
COC(=O)[C@H](C)O[C@H]1CC(=O)N1C(=O)N[C@H](C)c1ccccc1 [Entry 210]		3.8			
C[C@@H](NC(=O)N1C(=O)C[C@@H]1SCC(=O)c1ccccc1)c1ccccc1 [Entry 112]	> 37	1	> 37		
C[C@@H](NC(=O)N1C(=O)C[C@H]1[S+]([O-])c1ccccc1)c1ccccc1 (stereo partly drawn) [Entry 107]		9			
C[C@@H](NC(=O)N1C(=O)C[C@@H]1Sc1ccccc1)c1ccccc1 [Entry 102]	40		> 100		
C[C@@H](NC(=O)N1C(=O)C[C@@H]1Oc1ccc(Cl)cc1)c1ccccc1 [Entry 207]	250	0.8	> 250		
